Where no end group is shown, it is not given here. [ ]: non-standard residue; d: D form. pGlu = O=C1CC[C@@H](C(=O)O)N1
Tests used:
HCMV strain AD169 = experiment: HCMV plaque formation assay in MRC-5 cells; settings: for inhibition of HCMV plaque formation as compared to the virus control: 10 micrograms per ml, 7-10 days
[1] = tested on: hepatitis B virus (HBV) ayw strain; experiment: HBV assay in HepG2-2.2.15 cells (TaqMan PCR of secreted HBV DNA); assay type: cell-based; settings: 10 micrograms per ml; six days; combination 0.95 mole peptide 1 and 1.05 mole peptide 2
Source text: HepG2-2.2.15 is a stable cell line containing the hepatitis B virus (HBV) ayw strain genome (ATCC Cat. No. CRL-11997). Antiviral compounds blocking any late step of viral replication such as transcription, translation, pregenome encapsidation, reverse transcription, particle assembly and release can be identified and characterized using this cell line. In this assay, an active compound will reduce the production of secreted HBV from cells, measured by utilizing real time quantitative PCR (TaqMan) assay to directly and accurately measure HBV DNA copies. […] After 16-24 hours the confluent monolayer of HepG2-2.2.15 cells was washed and the medium was replaced with complete medium containing test peptides—10 micrograms per ml—in duplicate. Lamivudine (3TC) was used as the positive control, while media alone was added to the cells as a negative control (virus control). […] Six days following the initial administration of the peptides, the cell culture supernatants was collected, treated with pronase and DNAse and then used in a real-time quantitative TaqMan PCR assay. The PCR-amplified HBV DNA was detected in real-time by monitoring increases in fluorescence signals that result from the exonucleolytic degradation of a quenched fluorescence probe molecule that hybridizes to the amplified HBV DNA. […] Antiviral activity was calculated from the reduction in HBV DNA levels (% virus control). […]

murine spleen cells = experiment: Th1/Th2 cytokine profiling assay (Ovalbumin restimulation); assay type: cell-based, Balb/c mice; settings: 10 micrograms per ml, 72 hours
[2] = tested on: Primary Human endothelial cells (HUVEC); experiment: Endothelial cell migration assay; assay type: cell-based; settings: 10 micrograms per ml; 22 hours
HIV-1IIIB = experiment: HIV-1 antiviral assay in CEM-SS cells (MTS readout)
HUVEC = experiment: Endothelial tube formation assay; assay type: cell-based, human; settings: 10 micrograms per ml; 20 hours
Description: The endothelial tube formation assay is based on the ability of endothelial cells to form three-dimensional capillary-like tubular structures when cultured on a gel of basement membrane extract. […] Pre-labeled HUVEC with Calcein AM were seeded in a 96-well culture plate coated with extracellular metrix (Chemicon international Cat. ECM625) and treated with test peptides—10 micrograms per ml—in full growth medium. Positive control wes vehicle only. The endothelial cells were allowed to form tubes foe 20 hours and were then examined under an inverted fluorescent microscope. Duplicate wells for each treatment were photographed and quantitatevily analyzed for an average tubule length using image analysis software ImageProPlus. Raw data were expressed as average tubule lengths in pixels ±standard deviation. Statistic p values were computed using the Student's t-test.

[3] = combination 0.95 mole peptide 1 and 1.05 mole peptide 2

## Nc1nc(O)c2ncn(COC(CO)CO)c2n1 [Ganciclovir, reference compound]
HCMV strain AD169; positive control, MRC-5 cells, HCMV AD169
  antiviral activity of positive control compound: expected levels of antiviral activity

## Ala-Arg-Leu-Asp-Val-Ala-Ser-Glu-Phe-Arg-Lys-Lys-Trp-Asn-Lys-Trp-Ala-Leu-Ser-Arg-NH2 (ARLDVASEFRKKWNKWALSR-NH2) [Peptide 1]
[1]
  inhibition of HBV replication as compared to the virus control infection: 10.0%
Murine spleen cells
  production of IL-2, induced by: 44.3%
  production of IL-4, induced by: 43.2%
Murine spleen cells; [3]
  change of the production of IFN-γ: did not significantly change
  change of the production of IL-5: did not significantly change
  change of the production of TNF-alpha: did not significantly change
[2]
  inhibition of the migration of human endothelial cells: did not inhibit
HCMV strain AD169
  inhibition of HCMV plaque formation as compared to the virus control: did not inhibit

## CC(C)(C)NC(=O)[C@@H]1CN(Cc2cccnc2)CCN1C[C@@H](O)C[C@@H](Cc1ccccc1)C(=O)N[C@H]1c2ccccc2C[C@H]1O [indinavir]
HIV-1IIIB
  antiviral activity of positive control compounds: expected levels of antiviral activity

## Cc1cn([C@H]2C[C@H](N=[N+]=[N-])[C@@H](CO)O2)c(=O)[nH]c1=O [AZT]
HIV-1IIIB
  antiviral activity of positive control compounds: expected levels of antiviral activity

## Pyr-Leu-Gly-Pro-Gln-Gly-Pro-Pro-His-Leu-Val-Ala-Asp-Pro-Ser-Lys-Lys-Gln-Gly-Pro-Trp-Leu-Glu-Glu-Glu-Glu-Glu-Ala-Tyr-Gly-Trp-Met-Asp-Phe-NH2 ([pGlu]LGPQGPPHLVADPSKKQGPWLEEEEEAYGWMDF-NH2; SMILES CSCC[C@H](NC(=O)[C@H](Cc1c[nH]c2ccccc12)NC(=O)CNC(=O)[C@H](Cc1ccc(O)cc1)NC(=O)[C@H](C)NC(=O)[C@H](CCC(=O)O)NC(=O)[C@H](CCC(=O)O)NC(=O)[C@H](CCC(=O)O)NC(=O)[C@H](CCC(=O)O)NC(=O)[C@H](CCC(=O)O)NC(=O)[C@H](CC(C)C)NC(=O)[C@H](Cc1c[nH]c2ccccc12)NC(=O)[C@@H]1CCCN1C(=O)CNC(=O)[C@H](CCC(N)=O)NC(=O)[C@H](CCCCN)NC(=O)[C@H](CCCCN)NC(=O)[C@H](CO)NC(=O)[C@@H]1CCCN1C(=O)[C@H](CC(=O)O)NC(=O)[C@H](C)NC(=O)[C@@H](NC(=O)[C@H](CC(C)C)NC(=O)[C@H](Cc1c[nH]cn1)NC(=O)[C@@H]1CCCN1C(=O)[C@@H]1CCCN1C(=O)CNC(=O)[C@H](CCC(N)=O)NC(=O)[C@@H]1CCCN1C(=O)CNC(=O)[C@H](CC(C)C)NC(=O)[C@@H]1CCC(=O)N1)C(C)C)C(=O)N[C@@H](CC(=O)O)C(=O)N[C@@H](Cc1ccccc1)C(N)=O) [Peptide 2]
[1]
  inhibition of HBV replication as compared to the virus control infection: 11.3%
Murine spleen cells
  production of IL-2, suppressed by: 100%
  production of IL-4, suppressed by: 100%
  production of IL-5, deceased by: 44.5%
Murine spleen cells; [3]
  change of the production of IFN-γ: did not significantly change
  change of the production of TNF-alpha: did not significantly change
[2]
  inhibition of the migration of human endothelial cells: 35%
HUVEC
  inhibition of the tube formation of human endothelial cells: 9%
HCMV strain AD169
  inhibition of HCMV plaque formation as compared to the virus control: did not inhibit
